In PubChem BioAssay (NCI):
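48-hour exposure; five concentrations; linearly interpolated endpoints. Definition used: TGI = concentration required for complete inhibition of growth.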

Columns and labels:
Assay in all cases: NCI-60 cell line screen, 48 h
[1] = system: 786-0 renal
[2] = system: A498 renal
[3] = system: A549 NSCLC
[4] = system: ACHN renal
[5] = system: BT-549 breast
[6] = system: CAKI-1 renal
[7] = system: CCRF-CEM leukemia
[8] = system: COLO 205 colon
[9] = system: DU-145 prostate
[10] = system: EKVX NSCLC
[11] = system: HCC-2998 colon
[12] = system: HCT-116 colon
[13] = system: HCT-15 colon
[14] = system: HL-60(TB) leukemia
[15] = system: HOP-62 NSCLC
[16] = system: HOP-92 NSCLC
[17] = system: HS 578T breast
[18] = system: HT29 colon
[19] = system: IGROV1 ovarian
[20] = system: K-562 leukemia
[21] = system: LOX IMVI melanoma
[22] = system: M14 melanoma
[23] = system: MCF7 breast
[24] = system: MDA-MB-231 breast
[25] = system: MDA-MB-435
[26] = system: MDA-N
[27] = system: MOLT-4 leukemia
[28] = system: NCI-H23 lung
[29] = system: NCI-H460 lung
[30] = system: NCI-H522 lung
[31] = system: NCI/ADR-RES ovarian
[32] = system: OVCAR-3 ovarian
[33] = system: OVCAR-4 ovarian
[34] = system: OVCAR-5 ovarian
[35] = system: OVCAR-8 ovarian
[36] = system: PC-3 prostate
[37] = system: RXF 393 renal
[38] = system: SF-268 CNS
[39] = system: SF-295 CNS
[40] = system: SF-539 CNS
[41] = system: SK-MEL-2 melanoma
[42] = system: SK-MEL-28 melanoma
[43] = system: SK-MEL-5 melanoma
[44] = system: SN12C renal
[45] = system: SNB-19 CNS
[46] = system: SR leukemia
[47] = system: SW-620 colon
[48] = system: T-47D breast
[49] = system: TK-10 renal
[50] = system: U251 CNS
[51] = system: UACC-257 melanoma
[52] = system: UACC-62 melanoma
[53] = system: UO-31 renal
[54] = system: KM12 colon
[55] = system: NCI-H226 lung
[56] = system: RPMI-8226 leukemia
[57] = system: SK-OV-3 ovarian
[58] = system: SNB-75 CNS
[59] = system: MALME-3M melanoma

N#CCCSC1SC(=C2SC3=C(SCCS3)S2)SC1SCCC#N (stereo not drawn)
TGI [1]: > 100 µM | TGI [2]: > 100 µM | TGI [3]: > 100 µM | TGI [4]: > 100 µM | TGI [5]: > 100 µM | TGI [6]: > 100 µM | TGI [7]: > 100 µM | TGI [8]: > 100 µM | TGI [9]: > 100 µM | TGI [10]: > 100 µM | TGI [11]: > 100 µM | TGI [12]: > 100 µM | TGI [13]: > 100 µM | TGI [14]: > 100 µM | TGI [15]: > 100 µM | TGI [16]: > 100 µM | TGI [17]: > 100 µM | TGI [18]: > 100 µM | TGI [19]: > 100 µM | TGI [20]: > 100 µM | TGI [21]: > 100 µM | TGI [22]: > 100 µM | TGI [23]: > 100 µM | TGI [24]: > 100 µM | TGI [25]: > 100 µM | TGI [26]: > 100 µM | TGI [27]: > 100 µM | TGI [28]: > 100 µM | TGI [29]: > 100 µM | TGI [30]: > 100 µM | TGI [31]: > 100 µM | TGI [32]: > 100 µM | TGI [33]: > 100 µM | TGI [34]: > 100 µM | TGI [35]: > 100 µM | TGI [36]: > 100 µM | TGI [37]: > 100 µM | TGI [38]: > 100 µM | TGI [39]: > 100 µM | TGI [40]: > 100 µM | TGI [41]: > 100 µM | TGI [42]: > 100 µM | TGI [43]: > 100 µM | TGI [44]: > 100 µM | TGI [45]: > 100 µM | TGI [46]: > 100 µM | TGI [47]: > 100 µM | TGI [48]: > 100 µM | TGI [49]: > 100 µM | TGI [50]: > 100 µM | TGI [51]: > 100 µM | TGI [52]: > 100 µM | TGI [53]: > 100 µM

Cc1nc(-n2[nH]c(C)c(CCO)c2=O)[nH]c(=O)c1CCO
TGI [1]: > 100 µM | TGI [2]: > 100 µM | TGI [3]: > 100 µM | TGI [4]: > 100 µM | TGI [5]: > 100 µM | TGI [6]: > 100 µM | TGI [7]: > 100 µM | TGI [8]: > 100 µM | TGI [9]: > 100 µM | TGI [10]: > 100 µM | TGI [11]: > 100 µM | TGI [12]: > 100 µM | TGI [13]: > 100 µM | TGI [14]: > 100 µM | TGI [15]: > 100 µM | TGI [16]: > 100 µM | TGI [17]: > 100 µM | TGI [18]: > 100 µM | TGI [19]: > 100 µM | TGI [20]: > 100 µM | TGI [54]: > 100 µM | TGI [21]: > 100 µM | TGI [22]: > 100 µM | TGI [23]: > 100 µM | TGI [24]: > 100 µM | TGI [25]: > 100 µM | TGI [26]: > 100 µM | TGI [27]: > 100 µM | TGI [55]: > 100 µM | TGI [28]: > 100 µM | TGI [29]: > 100 µM | TGI [30]: > 100 µM | TGI [31]: > 100 µM | TGI [32]: > 100 µM | TGI [33]: > 100 µM | TGI [35]: > 100 µM | TGI [36]: > 100 µM | TGI [56]: > 100 µM | TGI [37]: > 100 µM | TGI [38]: > 100 µM | TGI [39]: > 100 µM | TGI [40]: > 100 µM | TGI [42]: > 100 µM | TGI [43]: > 100 µM | TGI [57]: > 100 µM | TGI [44]: > 100 µM | TGI [45]: > 100 µM | TGI [58]: > 100 µM | TGI [46]: > 100 µM | TGI [47]: > 100 µM | TGI [48]: > 100 µM | TGI [49]: > 100 µM | TGI [50]: > 100 µM | TGI [51]: > 100 µM | TGI [52]: > 100 µM | TGI [53]: > 100 µM

O=C(O)CCC(NC(=O)c1ccc(Nc2cnc3ccc(C(F)(F)F)cc3n2)cc1)C(=O)O (stereo not drawn)
TGI [1]: > 100 µM | TGI [2]: > 100 µM | TGI [3]: > 100 µM | TGI [4]: > 100 µM | TGI [5]: > 100 µM | TGI [6]: > 100 µM | TGI [7]: > 100 µM | TGI [8]: > 100 µM | TGI [9]: > 100 µM | TGI [10]: > 100 µM | TGI [11]: > 100 µM | TGI [12]: > 100 µM | TGI [13]: > 100 µM | TGI [14]: > 100 µM | TGI [15]: > 100 µM | TGI [16]: > 100 µM | TGI [17]: > 100 µM | TGI [18]: > 100 µM | TGI [19]: > 100 µM | TGI [20]: > 100 µM | TGI [54]: > 100 µM | TGI [21]: > 100 µM | TGI [22]: > 100 µM | TGI [59]: > 100 µM | TGI [23]: > 100 µM | TGI [24]: > 100 µM | TGI [25]: > 100 µM | TGI [26]: > 100 µM | TGI [27]: > 100 µM | TGI [55]: > 100 µM | TGI [28]: > 100 µM | TGI [29]: > 100 µM | TGI [31]: > 100 µM | TGI [32]: > 100 µM | TGI [33]: > 100 µM | TGI [34]: > 100 µM | TGI [35]: > 100 µM | TGI [36]: > 100 µM | TGI [56]: > 100 µM | TGI [37]: > 100 µM | TGI [38]: > 100 µM | TGI [39]: > 100 µM | TGI [40]: > 100 µM | TGI [41]: > 100 µM | TGI [42]: > 100 µM | TGI [43]: > 100 µM | TGI [57]: > 100 µM | TGI [44]: > 100 µM | TGI [45]: > 100 µM | TGI [58]: > 100 µM | TGI [46]: > 100 µM | TGI [47]: > 100 µM | TGI [48]: > 100 µM | TGI [49]: > 100 µM | TGI [50]: > 100 µM | TGI [51]: > 100 µM | TGI [52]: > 100 µM | TGI [53]: > 100 µM

Nc1ccc2nc3ccc(N)cc3[n+](-c3ccccc3)c2c1
TGI [1]: > 100 µM | TGI [2]: > 100 µM | TGI [3]: > 100 µM | TGI [4]: > 100 µM | TGI [5]: > 100 µM | TGI [6]: > 100 µM | TGI [7]: > 100 µM | TGI [8]: 26.9 µM | TGI [9]: > 100 µM | TGI [10]: > 100 µM | TGI [11]: > 100 µM | TGI [12]: 97.3 µM | TGI [13]: > 100 µM | TGI [14]: > 100 µM | TGI [15]: > 100 µM | TGI [16]: > 100 µM | TGI [17]: > 100 µM | TGI [18]: > 100 µM | TGI [19]: > 100 µM | TGI [20]: > 100 µM | TGI [54]: > 100 µM | TGI [21]: 75.9 µM | TGI [22]: > 100 µM | TGI [59]: 74.7 µM | TGI [23]: > 100 µM | TGI [24]: > 100 µM | TGI [25]: > 100 µM | TGI [26]: > 100 µM | TGI [28]: > 100 µM | TGI [29]: > 100 µM | TGI [30]: > 100 µM | TGI [31]: > 100 µM | TGI [32]: > 100 µM | TGI [33]: > 100 µM | TGI [34]: 80.9 µM | TGI [36]: > 100 µM | TGI [56]: > 100 µM | TGI [37]: > 100 µM | TGI [38]: > 100 µM | TGI [39]: > 100 µM | TGI [40]: > 100 µM | TGI [41]: > 100 µM | TGI [42]: > 100 µM | TGI [43]: 96.4 µM | TGI [57]: > 100 µM | TGI [44]: > 100 µM | TGI [45]: > 100 µM | TGI [58]: > 100 µM | TGI [46]: > 100 µM | TGI [47]: > 100 µM | TGI [48]: > 100 µM | TGI [49]: > 100 µM | TGI [50]: > 100 µM | TGI [51]: 68 µM | TGI [52]: > 100 µM | TGI [53]: > 100 µM
